We go through 14 molecules from patent US4039540A, “3-Substituted quinoxaline-2-carboxamide-1,4-dioxides” (Pfizer Inc., priority 1975, dated 1977).

In brackets after ≈: the same amount, converted by molar mass. Where two headings read alike, the source gives them in different places.

One experiment deals with Strep. pyrogens. The experiment in a line: in vitro antibacterial activity, two-fold serial dilution in Brain-Heart Infusion Broth (MIC). It counts as cell-based. Particulars: overnight, anaerobic. The method, then: (§1) The broth is inoculated with bacteria and with the test quinoxaline-1,4-dioxide and then it is incubated overnight under anerobic conditions. On the next day, the test is read visually. The minimum inhibitory concentration (MIC) of test compound is the lowest concentration which prevents turbidity, i.e., which prevents growth of the microorganism.
(§2) In vitro and in vivo activity of representative compounds of this invention, determined as aforesaid, are reported in the following tabulation for compounds of the formula: [drawing 12]

For experiment [1], the system named is E. coli. The experiment is described as above. In kind it is cell-based. The conditions noted are these: Escherichia coli, overnight, anaerobic. The method, then: as §1, §2
The test system of the next experiment is Strep. pyogenes. The experiment in a line: in vivo activity in mice infected with a lethal inoculum of Strep. pyogenes. The conditions noted are these: Streptococcus pyogenes, multiple dosing. The method, then: (§3) In determining the in vivo activity of the quinoxaline-1,4-dioxides of this invention, the test compound is administered to mice which have been infected by […] injection of a lethal inoculum of pathogenic bacteria. The test compound is administered using a multiple dosing regimen and using either the oral (PO) or the subcutaneous (SC) route. The inoculum of bacteria varies from about 1 to about 10 times the amount needed to kill 100% of the mice under the conditions of the test. At the end of the test, the activity of the compound is assessed by counting the number of survivors among the treated animals.
as §2

Experiment [2] relates to E. coli. As to the kind of experiment: in vivo activity in mice infected with a lethal inoculum of E. coli. The conditions noted are these: Escherichia coli, sc, subcutaneous, multiple dosing, read-out: IN VIVO E. coli, number of survivors among the treated animals. The method, then:
as §3, §2

The mark [3] stands for this setting: sc, subcutaneous, read-out: IN VIVO Strep. pyogenes, number of survivors among the treated animals.
Setting [4] is: oral, read-out: IN VIVO Strep. pyogenes, number of survivors among the treated animals, PO (data in parenthesis).

Regarding `CN(C)CCNC(=O)c1c(CS(=O)(=O)CCO)[n+]([O-])c2ccccc2[n+]1[O-]` [NHCH2 CH2 N(CH3)2; SO2 CH2 CH2 OH; H], the minimal inhibitory concentration (MIC) in the experiment with Strep. pyrogens stood at 100 µg/mL (≈ 251 µM); in the experiment with E. coli [1], 50 µg/mL (≈ 125 µM). The responders at 50 mg/kg in the experiment on Strep. pyogenes (setting [3]) was found to be 20%. For the same molecule, in the experiment with E. coli [2], the responders at 25 mg/kg is 0%.
With `COCCNC(=O)c1c(CS(=O)(=O)CCCN(C)C)[n+]([O-])c2ccccc2[n+]1[O-]` [NHCH2 CH2 OCH3; SO2 (CH2)3 N(CH3)2; H], the MIC in the experiment with Strep. pyrogens turned out to be 1.56 µg/mL (≈ 3.66 µM); against E. coli [1], 50 µg/mL (≈ 117 µM). Also, the figures for the responders at 50 mg/kg with Strep. pyogenes (setting [4]) and in the experiment with Strep. pyogenes (setting [3]) were 50% and 100%, respectively. Besides, the responders at 25 mg/kg in the experiment on E. coli [2] worked out at 10%.
For `COCCNC(=O)c1c(CS(=O)(=O)CCCOC(C)=O)[n+]([O-])c2ccccc2[n+]1[O-]` [NHCH2 CH2 OCH3; SO2 CH2 CH2 CH2 OAc; H] the same measures were 12.5 µg/mL (≈ 28.3 µM), 100 µg/mL (≈ 227 µM), 10%, 20% and 10%.
Regarding `COCCNC(=O)c1c(CS(=O)(=O)CCO)[n+]([O-])c2ccccc2[n+]1[O-]` [NHCH2 CH2 OCH3; SO2 CH2 CH2 OH; H], the MIC is 0.781 µg/mL (≈ 2.03 µM) with Strep. pyrogens and 12.5 µg/mL (≈ 32.4 µM) with E. coli [1]. The responders at 50 mg/kg in the experiment on Strep. pyogenes (setting [4]) was determined as 0%; in the experiment on Strep. pyogenes (setting [3]), 40%. Further, in the experiment on E. coli [2], the responders at 25 mg/kg worked out at 0%.
Take `COCCNC(=O)c1c(CS(=O)(=O)CCCN2CCCCC2)[n+]([O-])c2ccccc2[n+]1[O-]` [NHCH2 CH2 OCH3; drawing 25; H]: the results for the minimal inhibitory concentration (MIC) against Strep. pyrogens and in the experiment with E. coli [1] were 1.56 µg/mL (≈ 3.35 µM) and 50 µg/mL (≈ 107 µM), respectively. In addition, the responders at 50 mg/kg in the experiment with Strep. pyogenes (setting [4]) and in the experiment with Strep. pyogenes (setting [3]) was 100% throughout. The responders at 25 mg/kg with E. coli [2] amounted to 20%.
Regarding `CC(=O)OCCCSCc1c(C(=O)NCCO)[n+]([O-])c2ccccc2[n+]1[O-]` [NHCH2 CH2 OH; S(CH2)3 OAc; H], the MIC is 6.25 µg/mL (≈ 15.8 µM) against Strep. pyrogens and 100 µg/mL (≈ 253 µM) in the experiment with E. coli [1]. The responders at 50 mg/kg in the experiment with Strep. pyogenes (setting [4]) was 30%; in the experiment with Strep. pyogenes (setting [3]), 10%. Moreover, in the experiment with E. coli [2], the responders at 25 mg/kg was found to be 30%.
Consider `O=C(NCCO)c1c(CSCCO)[n+]([O-])c2ccccc2[n+]1[O-]` [NHCH2 CH2 OH; SCH2 CH2 OH; H], for which the minimal inhibitory concentration (MIC) in the experiment on Strep. pyrogens came to 12.5 µg/mL (≈ 36.8 µM); against E. coli [1] it was 50 µg/mL (≈ 147 µM). Besides, the responders at 50 mg/kg in the experiment on Strep. pyogenes (setting [4]) amounted to 50%; in the experiment with Strep. pyogenes (setting [3]), 30%. In the experiment on E. coli [2], the responders at 25 mg/kg stood at 0%.
The corresponding values for `CN(C)CCCS(=O)(=O)Cc1c(C(=O)NCCO)[n+]([O-])c2ccccc2[n+]1[O-]` [NHCH2 CH2 OH; SO2 (CH2)3 N(CH3)2; H] are 50 µg/mL (≈ 121 µM), 50 µg/mL (≈ 121 µM), 0%, 60% and 0%.
For `O=C(NCCO)c1c(CS(=O)(=O)CCO)[n+]([O-])c2ccccc2[n+]1[O-]` [NHCH2 CH2 OH; SO2 CH2 CH2 OH; H] the same measures were 25 µg/mL (≈ 67.3 µM), 100 µg/mL (≈ 269 µM), 10%, 30% and 10%.
As for `O=C(NCCO)c1c(CS(=O)(=O)CCCN2CCCCC2)[n+]([O-])c2ccccc2[n+]1[O-]` [NHCH2 CH2 OH; drawing 22; H], the MIC against Strep. pyrogens was determined as 50 µg/mL (≈ 110 µM); against E. coli [1], 25 µg/mL (≈ 55.2 µM). The responders at 50 mg/kg in the experiment with Strep. pyogenes (setting [4]) is 20%; with Strep. pyogenes (setting [3]), 100%. Further, the responders at 25 mg/kg in the experiment with E. coli [2] turned out to be 20%.
In the case of `CCSCCNC(=O)c1c(CS(=O)(=O)CCO)[n+]([O-])c2ccccc2[n+]1[O-]` [NHCH2 CH2 SCH2 CH3; SO2 CH2 CH2 OH; H], the results for the MIC in the experiment on Strep. pyrogens and in the experiment on E. coli [1] were 1.56 µg/mL (≈ 3.76 µM) and 100 µg/mL (≈ 241 µM), respectively. The responders at 50 mg/kg is 0% with Strep. pyogenes (setting [4]) and 10% in the experiment with Strep. pyogenes (setting [3]). In the experiment on E. coli [2], the responders at 25 mg/kg was 50%.
With `CCNC(=O)c1c(CSCCCOC(C)=O)[n+]([O-])c2ccccc2[n+]1[O-]` [NHCH2 CH3; SCH2 CH2 CH2 OAc; H], the MIC against Strep. pyrogens was determined as 3.12 µg/mL (≈ 8.24 µM); in the experiment on E. coli [1], 25 µg/mL (≈ 65.9 µM). The results for the responders at 50 mg/kg with Strep. pyogenes (setting [4]) and with Strep. pyogenes (setting [3]) were 20% and 10%, respectively. The responders at 25 mg/kg in the experiment on E. coli [2] worked out at 0%.
For `CCNC(=O)c1c(CSCCO)[n+]([O-])c2ccccc2[n+]1[O-]` [NHCH2 CH3; SCH2 CH2 OH; H] the same measures were 3.12 µg/mL (≈ 9.66 µM), 6.25 µg/mL (≈ 19.3 µM), 20%, 20% and 40%.
`CCNC(=O)c1c(CS(=O)(=O)CCCN(C)C)[n+]([O-])c2ccccc2[n+]1[O-]` [NHCH2 CH3; SO2 (CH2)3 N(CH3)2; H]: the values for the MIC against Strep. pyrogens and with E. coli [1] were 1.56 µg/mL (≈ 3.94 µM) and 12.5 µg/mL (≈ 31.5 µM), respectively. Also, the responders at 50 mg/kg in the experiment on Strep. pyogenes (setting [4]) and in the experiment with Strep. pyogenes (setting [3]) was 100% throughout. The responders at 25 mg/kg with E. coli [2] stood at 100%.

For orientation: MIC means the lowest concentration that inhibits growth of the organism. A higher MIC goes with a less susceptible organism.
